This is an account of results in US20240035092A1, “METHODS, KITS, AND SYSTEMS FOR PREDICTING PATIENT OUTCOMES” (SAPERE BIO, INC., priority 2020, published 2024).

In data set [1] the test system is advanced breast cancer, hormone receptor-positive, HER2-negative. Briefly: Time to progression on CDK4/6i treatment. The class given is in vivo, human. The note with it: Palbociclib with letrozole or fulvestrant. The source says: Six patients diagnosed with advanced breast cancer who were hormone receptor-positive, HER2-negative, were enrolled into a study and received a CDK4/6 inhibitor, Palbociclib, in combination with hormone-based therapy (letrozole or fulvestrant). Venous blood samples were collected from each patient into an EDTA tube prior to CDK4/6i administration, and at approximately 3 and 6 months (see FIG. 15 for timing) after the start of drug administration. T cells were isolated from blood samples and p16 expression levels were calculated as described in Example 1. Patients were followed to determine how long they received CDK4/6i treatment before becoming resistant to CDK4/6i and their cancer began to progress again (time to progression).

Data set [2] relates to CIPN patients. The note with it: cited from earlier work.
Data set [3] has as its system patients diagnosed with early-stage breast cancer. Briefly: Grade 2 or higher CIPN diagnosed by a clinician (CTCAE-CIPN) during taxane chemotherapy. The class given is in vivo, human. The note with it: adjuvant or neoadjuvant chemotherapy, at any point during chemotherapy, 89 patients on paclitaxel, 70 on docetaxel. An excerpt: One hundred fifty-nine patients diagnosed with early-stage breast cancer and scheduled to undergo adjuvant or neoadjuvant chemotherapy treatment that included a taxane regimen (paclitaxel or docetaxel) were enrolled. To be enrolled in the study, each patient must have met all of the inclusion criteria. Inclusion criteria: women ages 21 or older with histologically confirmed Stage I-III breast cancer and scheduled for adjuvant or neoadjuvant chemotherapy. Venous blood samples were collected from each patient into an EDTA tube during the patient's consultation visit with the oncologist or at their first chemotherapy session before chemotherapy was administered. Additional blood samples were collected at the end of chemotherapy treatment for 124 of the initial 159 patients. Median age of patients at consent was 58 years (24-83 range), median p16 was 9.5 (6.8-11.6 range), and median p16Age GAP was −22 years (−94-37 range). T cells were isolated from blood samples and p16 expression levels were calculated as described in Example 1.
Development of grade 2 or higher CIPN as diagnosed by a clinician (CTCAE-CIPN) at any point during chemotherapy was an endpoint of the study. […]

For data set [4] the test system is unchanged. Nature of the data set: CIPN risk prediction score built from the p16Age GAP regression model. Set-up: species or system human. The note with it: patient with a CIPN score of 11 (scale 0-20). As for the experimental part: Regression models were built by step-wise addition of variables such as co-morbidities, chronological age, p16, or p16Age GAP and interactions between the variables were also considered. […] In contrast, when p16Age GAP was used instead of p16 (Model 2), p16Age GAP was able to replace all co-morbidities, chronological age, and p16 as variables to yield the model with the similar fit (AUC 0.76, NPV 87%). The ROC curve depicted in FIG. 4 was calculated using Model 2. The p16Age GAP-containing model was a strong predictor of the risk of developing CIPN.
The data from the regression model shown in FIG. 4 was used to build a CIPN risk prediction score according to standard methods (see, e.g., Hurria, J. Clin Oncol. (2011) and Hurria J. Clin Oncology, (2016)). All variables were assigned a weight based on their R coefficients in the regression model and the sum of all weights was added to create a final risk score for each patient. For a CIPN risk model, the range was adjusted so the total score scale was 0-20, with a single value for each patient. […] In certain embodiments, this risk differential between regimens of similar efficacy can help guide regimen selection. […]

Turning to `CC(=O)c1c(C)c2cnc(Nc3ccc(N4CCNCC4)cn3)nc2n(C2CCCC2)c1=O` [CDK 4/6i, Palbociclib], the “time to progression (resistance to CDK 4/6i treatment)” value in data set [1] (four patients whose p16 expression did not increase above measurement precision) was 35-50 months; in data set [1] (two patients whose p16 expression increased above measurement precision after treatment) it was 10-20 months.

As for `CNCC[C@H](Oc1cccc2ccccc12)c1cccs1` [Duloxetine], in data set [2] (CIPN patients, improvement derived primarily from patients who received platinum-containing agents), the “decrease in pain score, on average” value was “one”. Also, the “benefit on CIPN pain” value in data set [2] (patients receiving taxanes) was “no clear benefit”.

On to `CC(=O)O[C@@]12CO[C@@H]1C[C@H](O)[C@@]1(C)C(=O)[C@H](O)C3=C(C)[C@@H](OC(=O)[C@H](O)[C@@H](NC(=O)OC(C)(C)C)c4ccccc4)C[C@@](O)([C@@H](OC(=O)c4ccccc4)[C@H]21)C3(C)C` [docetaxel], for which, in data set [3], the “patients who developed grade 2 or higher CIPN” value worked out at 10%. Also, the “risk of CIPN” value in data set [4] is recorded as 9%.

For `CC(=O)O[C@H]1C(=O)[C@@]2(C)[C@H]([C@H](OC(=O)c3ccccc3)[C@]3(O)C[C@H](OC(=O)[C@H](O)[C@@H](NC(=O)c4ccccc4)c4ccccc4)C(C)=C1C3(C)C)[C@]1(OC(C)=O)CO[C@@H]1C[C@@H]2O` [paclitaxel], the “patients who developed grade 2 or higher CIPN” value in data set [3] is 46%. The “risk of CIPN” value in data set [4] is given as 50%.
